{
  "source": "patent US9580379B2",
  "about": "“Xanthine oxidase inhibitors and methods of use” (Baylor College of Medicine, priority 2014, dated 2017);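 on IC50: xanthine oxidase activity read as the initial rate of uric acid production, with water serving as the negative control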;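 on ability to inhibit XO at a concentration of 20 μM: xanthine oxidase activity read as the initial rate of uric acid production, with water serving as the negative control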;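 on concentration and pre-incubation time dependence of XO inhibition: xanthine oxidase activity read as the initial rate of uric acid production, with water serving as the negative control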;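 on influence of pre-incubation with XO on XO inhibition: xanthine oxidase activity read as the initial rate of uric acid production, with water serving as the negative control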",
  "key": {"[1]": {"experiment": "DPPH scavenging assay", "conditions": "20 μM compound, 100 μM DPPH, compared with vitamin C", "procedure": "DPPH scavenging assay—The abilities of the polyphenols described herein to scavenge the DPPH radical were measured optically by monitoring the decreases of their absorptions at […]. […] DPPH was used at a concentration of 100 μM. Their scavenging activities were compared with that of vitamin C."}, "[2]": {"target": "xanthine oxidase (Bos taurus, UniProt P80457)", "sequence (P80457 whole entry)": "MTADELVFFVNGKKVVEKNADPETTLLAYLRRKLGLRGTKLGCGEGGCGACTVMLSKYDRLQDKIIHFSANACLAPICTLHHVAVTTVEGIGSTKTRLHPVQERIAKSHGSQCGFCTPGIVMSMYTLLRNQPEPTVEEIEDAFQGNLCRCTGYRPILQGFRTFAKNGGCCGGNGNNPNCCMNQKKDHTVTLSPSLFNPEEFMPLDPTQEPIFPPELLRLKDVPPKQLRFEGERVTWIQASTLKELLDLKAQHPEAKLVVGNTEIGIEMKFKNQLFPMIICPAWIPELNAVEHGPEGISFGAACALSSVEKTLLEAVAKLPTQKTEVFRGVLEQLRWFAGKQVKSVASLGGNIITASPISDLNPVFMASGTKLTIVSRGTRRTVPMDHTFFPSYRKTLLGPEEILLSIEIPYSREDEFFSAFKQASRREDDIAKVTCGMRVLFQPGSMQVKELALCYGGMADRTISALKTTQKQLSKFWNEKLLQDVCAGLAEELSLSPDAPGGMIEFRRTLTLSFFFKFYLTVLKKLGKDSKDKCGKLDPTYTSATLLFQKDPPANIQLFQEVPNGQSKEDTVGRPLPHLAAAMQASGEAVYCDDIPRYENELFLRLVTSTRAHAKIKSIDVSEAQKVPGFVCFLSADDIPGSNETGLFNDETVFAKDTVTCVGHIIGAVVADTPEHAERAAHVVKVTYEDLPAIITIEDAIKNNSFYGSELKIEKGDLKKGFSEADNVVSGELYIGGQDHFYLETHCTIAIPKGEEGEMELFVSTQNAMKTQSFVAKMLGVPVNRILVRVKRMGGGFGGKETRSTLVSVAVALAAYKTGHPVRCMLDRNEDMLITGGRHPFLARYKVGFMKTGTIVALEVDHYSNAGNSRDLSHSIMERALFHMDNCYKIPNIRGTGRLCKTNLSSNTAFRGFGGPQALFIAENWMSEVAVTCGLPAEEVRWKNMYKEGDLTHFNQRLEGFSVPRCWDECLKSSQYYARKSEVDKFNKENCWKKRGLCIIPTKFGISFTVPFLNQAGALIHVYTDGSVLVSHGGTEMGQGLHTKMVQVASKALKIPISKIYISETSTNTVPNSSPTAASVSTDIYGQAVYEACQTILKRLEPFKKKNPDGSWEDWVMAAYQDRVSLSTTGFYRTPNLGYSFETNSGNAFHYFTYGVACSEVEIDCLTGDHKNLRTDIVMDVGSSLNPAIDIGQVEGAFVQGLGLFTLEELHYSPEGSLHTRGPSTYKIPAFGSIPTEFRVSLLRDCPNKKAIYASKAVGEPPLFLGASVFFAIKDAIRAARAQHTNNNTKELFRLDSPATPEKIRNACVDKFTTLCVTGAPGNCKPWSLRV", "conditions": "for ability to inhibit XO at a concentration of 20 μM: compared with allopurinol (FIG. 2); for influence of pre-incubation with XO on XO inhibition: pre-incubation with XO 0 to 5 min at 25° C."}, "[3]": {"experiment": "Peroxynitrite scavenging assay", "conditions": "25 μM ONOO−, pH 7.4 (FIG. 7C)", "procedure": "Peroxynitrite scavenging assay—Peroxynitrite (ONOO—) was generated by mixing 5 mL acidic solution (0.6 M HCl) of H2O2 (0.7 M) and 5 mL of 0.6 M KNO2 in an ice bath for 1 second and the reaction was quenched with 5 mL of ice-cold 1.2 M NaOH. Residual H2O2 was removed using granular MnO2 prewashed with 1.2 M NaOH and the reaction mixture was then left overnight at −20° C. Concentrations of ONOO^− were determined before each experiment at 302 nm using a molar extinction coefficient of 1,670 M^−1 cm^−1. The final concentrations of reagents used in the assay are as follows: 25 μM ONOO^−, 10 μM DTPA, 5 μM DHR 123, 0.1 M phosphate buffer, pH 7.4. The ONOO^− scavenging assay was performed by monitoring the oxidation of dihydrorhodamine (DHR 123) by ONOO^− spectrophotometrically at 500 nm. […] Vitamin C was used as a positive control. The concentration dependent effects of these compounds on ONOO^− scavenging were also studied and compared with that of vitamins C and E (FIG. 10)."}, "[4]": {"experiment": "HOCl scavenging assay", "conditions": "20 μM, compared with vitamin C", "procedure": "HOCl scavenging assay—HOCl was prepared immediately before use by adjusting the pH of a 1% (v/v) solution of NaOCl to pH 6.2 with 0.6 M sulfuric acid. The concentration was further determined spectrophotometrically at 235 nm using the molar extinction coefficient of 100 M^−1 cm^−1. 5-Thio-2-nitrobenzoic acid (TNB) was prepared by reducing 5,5′-dithio-bis(2-nitrobenzoic acid) (DTNB) with sodium borohydride in phosphate buffer. The final concentrations of reagents used in the assay are as follows: 25 μM HOCl, 70 μM TNB, 0 to 200 μM antioxidants, phosphate buffer, 50 mM, pH 6.6. The HOCl scavenging assay was based on the inhibition of TNB oxidation to DTNB induced by HOCl."}, "[5]": {"tested_on": "C57BL/6 mice", "source_text": "Each mouse was monitored for general health conditions on a daily basis for 28 days, including examination of mortality, body weights, and behavior of the mice."}, "[6]": {"tested_on": "allantoxanamide induced hyperuricemic mice", "experiment": "Hypouricemic effect in allantoxanamide induced hyperuricemic mice", "assay_type": "in vivo", "procedure": "A hyperuricemia mouse model was used. Allantoxanamide, a potent uricase inhibitor, was used to induce hyperuricemia in mice in this study. […] The mice were subsequently intraperitoneally injected with allantoxanamide at 200 mg/kg in 0.5% CMC-Na in a volume of 0.1 ml/10 g mouse body weight just after the tested drug oral administration to increase the serum uric acid level. […] The negative control mice were administered PEG400 only followed by i.p. allantoxanamide. The normal group mice were administered PEG400 only followed by i.p. CMC-Na only. Food and water were withheld overnight prior to the study. Whole blood samples were collected from mice through orbital vein bleeding at the end of the study. The mice were anaesthetized with diethyl ether inside a chamber. The blood was allowed to clot for 1 h at room temperature and then centrifuged at 2350×g for 4 min to obtain the serum. The serum was kept on ice and assayed immediately. Serum uric acid was determined with the phosphotungstate method, as known to those of skill in the art."}, "[7]": {"experiment": "Superoxide scavenging assay (xanthine-xanthine oxidase system, NBT reduction)", "conditions": "20 μM", "procedure": "Superoxide scavenging assay—Superoxide (O2^−•) scavenging activity was assayed in the xanthine-xanthine oxidase system and determined by the inhibition of the reduction of nitro blue tetrazolium (NBT) to form blue formazan which has an absorption at 560 nm. The final concentrations of reagents used in the assay are as follows: 16.8 mU xanthine oxidase, 25 μM xanthine, 50 μM NBT, and 0.1 M phosphate buffer (pH 8.5). […] The abilities of polyphenols to scavenge O2^−• were compared with that of GSH."}, "[8]": {"target": "T1, XO (Bos taurus, UniProt P80457)", "T1 construct": "Xanthine oxidase from bovine milk; purchased Sigma Chemical Co. (St. Louis, Mo.); host or cells: bovine milk", "T1 sequence (P80457 whole entry)": "as above", "experiment": "Conversion of DHNB to products by XO / reaction of XO and DHNB", "assay_type": "biochemical, bovine", "procedure": "Negative electrospray ionization-mass spectrometry (ESI-MS) and tandem (MSMS) were applied to detect and confirm the reaction products of DHNB with XO. All mass spectrometric experiments were performed on an API 3200-Qtrap triple quadrupole mass spectrometer (Applied Biosystem/MDS SCIEX; Foster City, Calif.) equipped with a TurbolonSpray™ source. The main working parameters for mass spectrum were set as follows: ion-spray voltage, −4.5 kV; ion source temperature, 600° C.; gas 1, 40 psi; gas 2, 40 psi; curtain gas, 20 psi; collision gas, high.\nAfter that, the enzymatic activity of XO was recovered."}},
  "data": [
    {"smiles": "O=Cc1cc(O)c(O)cc1[N+](=O)[O-]", "note": "[DH6NB, 3,4-Dihydroxy-6-nitrobenzaldehyde]", "values": [
      {"measurement": "DPPH scavenging effect", "setting": "[1]", "result": "as strong of a DPPH scavenging effect as vitamin C"},
      {"measurement": "IC50", "setting": "[2]", "result": 96, "unit": "µM"},
      {"measurement": "ability to inhibit XO at a concentration of 20 μM", "setting": "[2]", "result": "had inhibitory effects on XO"},
      {"measurement": "influence of pre-incubation with XO on XO inhibition", "setting": "[2]; then 50 μM xanthine", "result": "pre-incubation also affected the XO inhibition"},
      {"measurement": "scavenging effect on ONOO−", "setting": "[3]", "result": "strong scavenging effect on ONOO^−"},
      {"measurement": "HOCl scavenging effect", "setting": "[4]", "result": "weak scavenging effect on HOCl"}
    ]},
    {"smiles": "O=C(O)c1ccc(O)c(O)c1", "note": "[DHB-COOH, 3,4-dihydroxybenzoic acid, reference compound]", "values": [
      {"measurement": "ability to inhibit XO at a concentration of 20 μM", "setting": "[2]", "result": "no effect on XO"},
      {"measurement": "influence of pre-incubation with XO on XO inhibition", "setting": "[2]; then 50 μM xanthine", "result": "did not show any inhibitory effect"}
    ]},
    {"smiles": "O=C(O)/C=C/c1ccc(O)c(O)c1", "note": "[caffeic acid, reference compound]", "values": [
      {"measurement": "scavenging effect on ONOO−", "setting": "[3]", "result": "strong scavenging effect on ONOO^−"}
    ]},
    {"smiles": "O=Cc1ccc(O)c(O)c1", "note": "[DHB-CHO, 3,4-dihydroxybenzaldehyde]", "values": [
      {"measurement": "DPPH scavenging effect", "setting": "[1]", "result": "as strong of a DPPH scavenging effect as vitamin C"},
      {"measurement": "concentration and pre-incubation time dependence of XO inhibition", "setting": "[2]", "result": "not concentration dependent but instead was pre-incubation time dependent"},
      {"measurement": "ability to inhibit XO at a concentration of 20 μM", "setting": "[2]", "result": "had inhibitory effects on XO"},
      {"measurement": "influence of pre-incubation with XO on XO inhibition", "setting": "[2]; then 50 μM xanthine", "result": "pre-incubation also affected the XO inhibition"},
      {"measurement": "scavenging effect on ONOO−", "setting": "[3]", "result": "strong scavenging effect on ONOO^−"},
      {"measurement": "HOCl scavenging effect", "setting": "[4]", "result": "weak scavenging effect on HOCl"}
    ]},
    {"smiles": "O=[N+]([O-])c1cc(CO)cc(O)c1O", "note": "[DHNB-CH2OH, reference compound]", "values": [
      {"measurement": "ability to inhibit XO at a concentration of 20 μM", "setting": "[2]", "result": "no effect on XO"},
      {"measurement": "influence of pre-incubation with XO on XO inhibition", "setting": "[2]; then 50 μM xanthine", "result": "did not show any inhibitory effect"}
    ]},
    {"smiles": "Oc1ncnc2[nH]ncc12", "note": "[allopurinol]", "values": [
      {"measurement": "pups of surviving mice that died in two days", "setting": "[5]; 500 mg/kg, total 19 pups", "result": "eight"},
      {"measurement": "mice died within 3 days", "setting": "[5]; C57BL/6, mouse, in vivo", "result": 5},
      {"measurement": "hair loss of pups of treated mice", "setting": "[5]; mouse, in vivo", "result": "lost most of the back hair"},
      {"measurement": "DPPH scavenging effect", "setting": "[1]", "result": "no scavenging effect on DPPH"},
      {"measurement": "time course of XO inhibition", "setting": "[2]; XO (20 nM) added to xanthine (50 μM) and inhibitor (6.67 μM) to start the reaction", "result": "time-dependent inhibition"},
      {"measurement": "serum urate level", "setting": "[6]; same condition as DHNB (100 mg/kg oral before allantoxanamide)", "result": "significantly lowered the serum urate level close to the normal level"}
    ]},
    {"smiles": "O.O=Cc1cc(O)c(O)c(O)c1", "note": "[THB-CHO, 3,4,5-trihydroxybenzaldehyde hydrate]", "values": [
      {"measurement": "DPPH scavenging effect", "setting": "[1]", "result": "as strong of a DPPH scavenging effect as vitamin C"},
      {"measurement": "IC50 value, inhibition of XO activity", "setting": "[2]; 20 nM XO, 50 μM xanthine, phosphate buffer pH 7.4, 25° C., initial rate of uric acid formation", "result": "too high to determine"},
      {"measurement": "ability to inhibit XO at a concentration of 20 μM", "setting": "[2]", "result": "had inhibitory effects on XO"},
      {"measurement": "influence of pre-incubation with XO on XO inhibition", "setting": "[2]; then 50 μM xanthine", "result": "pre-incubation also affected the XO inhibition"},
      {"measurement": "scavenging effect on superoxide", "setting": "[7]", "result": "strong scavenging effects on superoxide"},
      {"measurement": "scavenging effect on ONOO−", "setting": "[3]", "result": "strong scavenging effect on ONOO^−"},
      {"measurement": "HOCl scavenging effect", "setting": "[4]", "result": "stronger HOCl scavenging effect than that of vitamin C"}
    ]},
    {"smiles": "O=C(O)c1cc(O)c(O)c([N+](=O)[O-])c1", "note": "[3,4-dihydroxy-5-nitrobenzoic acid]", "values": [
      {"measurement": "inhibitory effect on XO of the product of DHNB conversion", "setting": "[8]; room temperature", "result": "no inhibitory effect on XO"}
    ]},
    {"smiles": "NC(=O)c1nc(=O)[nH]c(=O)[nH]1", "note": "[allantoxanamide]", "values": [
      {"measurement": "serum urate level", "setting": "[6]; 1 h after 200 mg/kg allantoxanamide i.p., normal mice 2 mg/dl", "result": 5.4, "unit": "mg/dL"},
      {"measurement": "serum urate level", "setting": "[6]; 2 h after 200 mg/kg allantoxanamide i.p.", "result": 9.5, "unit": "mg/dL"},
      {"measurement": "serum urate level", "setting": "[6]; 3 h after 200 mg/kg allantoxanamide i.p.", "result": 13.3, "unit": "mg/dL"},
      {"measurement": "serum urate level", "setting": "[6]; 4 h after 200 mg/kg allantoxanamide i.p.", "result": 16.4, "unit": "mg/dL"}
    ]},
    {"smiles": "O=C(O)c1cc(O)c(O)c(O)c1", "note": "[gallic acid, reference compound]", "values": [
      {"measurement": "ability to inhibit XO at a concentration of 20 μM", "setting": "[2]", "result": "no effect on XO"},
      {"measurement": "influence of pre-incubation with XO on XO inhibition", "setting": "[2]; then 50 μM xanthine", "result": "did not show any inhibitory effect"},
      {"measurement": "scavenging effect on ONOO−", "setting": "[3]", "result": "strong scavenging effect on ONOO^−"}
    ]},
    {"smiles": "COc1cc(C=O)ccc1O", "note": "[Vanillin, reference compound]", "values": [
      {"measurement": "ability to inhibit XO at a concentration of 20 μM", "setting": "[2]", "result": "no inhibition on XO activity"},
      {"measurement": "influence of pre-incubation with XO on XO inhibition", "setting": "[2]; then 50 μM xanthine", "result": "did not show any inhibitory effect"}
    ]},
    {"smiles": "COc1ccc(CO)cc1OC", "note": "[DMB-CH2OH, 3,4-dimethoxybenzyl alcohol, reference compound]", "values": [
      {"measurement": "ability to inhibit XO at a concentration of 20 μM", "setting": "[2]", "result": "no effect on XO"},
      {"measurement": "influence of pre-incubation with XO on XO inhibition", "setting": "[2]; then 50 μM xanthine", "result": "did not show any inhibitory effect"}
    ]},
    {"smiles": "O=Cc1cc([N+](=O)[O-])cc([N+](=O)[O-])c1O", "note": "[DNSA, 3,5-dinitrosalicylaldehyde]", "values": [
      {"measurement": "influence of pre-incubation of DNSA with XO on XO activity", "setting": "[2]; 20 nM XO and 20 μM DNSA pre-incubated 0-10 min, then 50 μM xanthine, steady-state rate", "result": "strongly inhibited XO activity"},
      {"measurement": "XO activity after pre-incubation with inhibitor for 20 h", "setting": "[2]; room temperature, 20 h, DNSA 5 μM or 10 μM", "result": "no XO activity at all"},
      {"measurement": "conversion of inhibitor by XO after 20 h", "setting": "[8]; pre-incubation with XO for 20 h", "result": "not converted"}
    ]}
  ]
}
